Data reported in US6362211B1, “Polycyclic indanylimidazoles with alpha2 adrenergic activity” (Orion Corporation, priority 2000, dated 2002).

System: Alpha2 Adrenoceptors (alpha2AR)
Assay: Antagonist activity on alpha2 adrenoceptors in rat vas deferens in vitro (electrically evoked twitch response)
Type: cell-based
Details: isolated rat vas deferens, field stimulation; antagonist given at least five minutes before alpha2AR agonist
Description: Antagonist Activity on Alpha2 Adrenoceptors (alpha2AR) in Rat Vas Deferens in Vitro
Rats were killed by CO2-suffocation. Vas deferentia were dissected out and both prostatic halves were removed to tissue chambers containing Krebs-solution of the following composition (mM): NaCl 118, KCl 4.7, CaCl2 2.5, KH2PO4 1.2, MgSO4 0.6, NaHCO3 25, glucose 11.1, aerated by 5% carbogen, temperature 37° C., pH 7.4. Propranolol […] and desipramine […] were added to prevent the possible effects on […] receptors and to prevent re-uptake of released norepinephrine, respectively. Preparations were tied to the bottom hooks of the incubation chambers and the to isometric force-displacement transducers above. Electrical stimulation was started after the equilibrium period/5 minutes under a resting tension of 0.5 g) by introducing field stimulation with the following parameters: twin-pulses, voltage 70 V, frequency 0.2 Hz, delay 5 ms, duration 2 ms. […] Inhibition of the electrically evoked contractions was measured as the response to alpha2AR agonists. Antagonist was administered into the incubation medium at least five minutes before agonist. Means±SEM of percentage inhibition were calculated in the absence and in the presence of antagonist and expressed as dose-response curves. In order to express the antagonist potency, pA2-value was calculated.

Compound	Vas deferens Alpha2 antagonistic activity, pA2
C=C1CCC2(c3c[nH]cn3)Cc3ccccc3C12 (stereo not shown) [2(a), 4-(3-Methylene-2,3,3a,8-tetrahydro-1H-cyclopenta[a]inden-8a-yl)-1H-imidazole]	pA2 = 7.8
c1ccc2c(c1)CC1(c3c[nH]cn3)CCCCC21 (stereo not shown) [3(i), 4-(4b,5,6,7,8,9-Hexahydrofluoren-8a-yl)-1H-imidazole]	pA2 = 8.2
c1ccc2c(c1)CC1(c3c[nH]cn3)CCCC21 (stereo not shown) [Example 1(e), 4-(2,3,3a,8-Tetrahydro-1H-cyclopenta[a]inden-8a-yl)-1H-imidazole]	pA2 = 8.4
CC1CCC2(c3c[nH]cn3)Cc3ccccc3C12 (stereo not shown) [Example 2(b), 4-(3-Methyl-2,3,3a,8-tetrahydro-1H-cyclopenta[a]inden-8a-yl)-1H-imidazole]	pA2 = 7.4
Fc1ccc2c(c1)C1CCCCC1(c1c[nH]cn1)C2 (stereo not shown) [Example 4, 4-(3-Fluoro-4b,5,6,7,8,9-hexahydrofluoren-8a-yl)-1H-imidazole]	pA2 = 7.4
COc1ccc2c(c1)C1CCCCC1(c1c[nH]cn1)C2 (stereo not shown) [Example 5(a), 4-(3-Methoxy-4b,5,6,7,8,9-hexahydrofluoren-8a-yl)-1H-imidazole]	pA2 = 6.9
Oc1ccc2c(c1)C1CCCCC1(c1c[nH]cn1)C2 (stereo not shown) [Example 5(b), 8a-(1H-Imidazol-4-yl)-5,6,7,8,8a,9-hexahydro-4bH-fluoren-3-ol]	pA2 = 7.7
OCCOCCOc1ccc2c(c1)C1CCCCC1(c1c[nH]cn1)C2 (stereo not shown) [Example 6, 2-{2-[8a-(1H-Imidazol-4-yl)-5,6,7,8,8a,9-hexahydro-4bH-fluoren-3-yloxy]-ethoxy}-ethanol]	pA2 = 6.0
c1ccc2c(c1)CC1(c3c[nH]cn3)C3CCC(CC3)C21 (stereo not shown) [Example 7(f), 4-(5,8-Ethano-4b,5,6,7,8,9-hexahydro-fluoren-8a-yl)-1H-imidazole]	pA2 = 5.3
c1ccc2c(c1)CC1(c3c[nH]cn3)Cc3ccccc3C21 (stereo not shown) [Example 8, 4-(4b,10-Dihydro-9H-indeno[1,2-a]inden-9a-yl)-1H-imidazole]	pA2 = 7.4
